The record followed here is patent publication US12378243B2, “Quinoline compounds as inhibitors of KRAS” (Incyte Corporation, priority 2021, dated 2025).

For data set [1], the target named is KRAS G12V mutant (Homo sapiens, UniProt P01116, G12V). Put plainly: GDP-GTP exchange assay, KRAS G12V. Format: biochemical. The following applies: bodipy loaded KRAS G12V 2.5 nM; 3 hours incubation after adding GppNHp-SOS1 mixture; read-out: G12V_exchange.
For data set [2], the system named is Caco-2 cells. Put plainly: Caco2 assay (permeability, A-B). Format: in vitro ADME. The following applies: Papp absorptive direction (A-B), test compound 50 μM, 120 minutes at 37° C. On the procedure:
Caco-2 cells are grown at 37° C. in an atmosphere of 5% CO2 in DMEM growth medium supplemented with 10% (v/v) fetal bovine serum, 1% (v/v) nonessential amino acids, penicillin (100 U/mL), and streptomycin (100 μg/mL). Confluent cell monolayers are subcultured every 7 days or 4 days for Caco-2 by treatment with 0.05% trypsin containing […]. Caco-2 cells are seeded in 96-well Transwell plates. The seeding density for Caco-2 cells is 14,000 cells/well. DMEM growth medium is replaced every other day after seeding. Cell monolayers are used for transport assays between 22 and 25 days for Caco-2 cells.
Cell culture medium is removed and replaced with HBSS. To measure the TEER, the HBSS is added into the donor compartment (apical side) and receiver compartment (basolateral side). The TEER is measured by using a REMS Autosampler to ensure the integrity of the cell monolayers. Caco-2 cell monolayers with TEER values ≥300 Ω·cm^2 are used for transport experiments. To determine the Papp in the absorptive direction (A-B), solution of test compound (50 μM) in HBSS is added to the donor compartment (apical side), while HBSS solution with 4% BSA is added to the receiver compartment (basolateral side). The apical volume was 0.075 mL, and the basolateral volume is 0.25 mL. The incubation period is 120 minutes at 37° C. in an atmosphere of 5% CO2. At the end of the incubation period, samples from the donor and receiver sides are removed and an equal volume of acetonitrile is added for protein precipitation. The supernatants are collected after centrifugation (3000 rpm, Allegra X-14R Centrifuge from Beckman Coulter, Indianapolis, IN) for LCMS analysis. The permeability value is determined according to the equation:
[formula] • where the flux rate (F, mass/time) is calculated from the slope of cumulative amounts of compound of interest on the receiver side, SA is the surface area of the cell membrane, VD is the donor volume, and MD is the initial amount of the solution in the donor chamber.
The symbol “+” indicates a Caco-2 value of […], “++” indicates a Caco-2 value of >0.5 but ≤1; and “+++” indicates a Caco-2 value of >1. “NA” indicates IC50 not available.
In general terms: Caco-2 cells form a polarised layer with tight junctions and transporters.

The target of data set [3] is KRAS G12D (Homo sapiens, UniProt P01116, G12D). Put plainly: GDP-GTP exchange assay, KRAS G12D. The data set is classed as biochemical. As to conditions: bodipy-loaded KRAS G12D 2.5 nM, GppNHp 500 uM, SOS1 150 nM; 4 hours pre-incubation, 2 hours incubation; read-out: G12D_exchange. How it is done: Inhibitors were serially diluted in DMSO and a volume of 0.1 μL was transferred to the wells of a black low volume 384-well plate. […] The exchange was initiated by the addition of a 5 μL/well volume containing 1 mM GppNHp and 300 nM SOS1 in assay buffer. […] The reaction plates were incubated at ambient temperature for 2 hours, a time estimated for complete GDP-GTP exchange in the absence of inhibitor.
Either GraphPad prism or Genedata Screener SmartFit was used to analyze the data. The IC50 values were derived by fitting the data to a four parameter logistic equation producing a sigmoidal dose-response curve with a variable Hill coefficient.
“NA” indicates IC50 not available.

KRAS G12D, sequence (P01116 1-188 isoform P01116-2 G12D): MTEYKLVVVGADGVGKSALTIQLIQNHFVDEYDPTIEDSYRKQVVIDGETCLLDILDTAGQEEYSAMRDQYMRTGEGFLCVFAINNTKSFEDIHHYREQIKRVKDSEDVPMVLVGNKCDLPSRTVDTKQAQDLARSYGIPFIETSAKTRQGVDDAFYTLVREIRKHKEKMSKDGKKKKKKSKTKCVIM
KRAS G12V mutant, sequence (P01116 1-188 isoform P01116-2 G12V): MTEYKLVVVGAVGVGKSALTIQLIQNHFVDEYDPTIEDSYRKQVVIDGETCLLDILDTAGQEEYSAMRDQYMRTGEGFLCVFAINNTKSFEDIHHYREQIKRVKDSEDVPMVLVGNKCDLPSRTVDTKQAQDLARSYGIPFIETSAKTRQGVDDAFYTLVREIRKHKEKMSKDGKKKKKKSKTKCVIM

Take `Cc1cc2c(-n3cncn3)nc3c(F)c(-c4cc(O)cc5ccc(Cl)cc45)c(CCC#N)cc3c2n1[C@H]1[C@H]2CN[C@@H]1C2` [Example 1, 3-(1-((1R,4R,5S)-2-Azabicyclo[2.1.1]hexan-5-yl)-7-(7-chloro-3-hydroxynaphthalen-1-yl)-6-fluoro-2-methyl-4-(1H-1,2,4-triazol-1-yl)-1H-pyrrolo[3,2-c]quinolin-8-yl)propanenitrile]: the IC50 in data set [1] and in data set [3] was less than 100 nM throughout. Besides, the Caco-2 entry in data set [2] (Table 3) is listed as “++ (a Caco-2 value of >0.5 but ≤1)”.

Turning to `Cc1cc2c(nc(O[C@@H](C)[C@@H]3CCCN3C)c3cc(CN4CCOCC4=O)n([C@H]4[C@H]5CN[C@@H]4C5)c32)c(F)c1-c1cccc2cccc(C#N)c12` (single isomer, unassigned) [Example 8], the IC50 in data set [1] and in data set [3] was less than 100 nM in each case. The Caco-2 result in data set [2] (Table 3) is “+ (a Caco-2 value of 50.5)”.

On to `CC(=O)N1CC[C@H](n2ncc3c(O[C@@H](C)[C@@H]4CCCN4C)nc4c(F)c(-c5cccc6cccc(C#N)c56)c(Cl)cc4c32)C[C@H]1CC#N` [Example 25, 8-(1-((2S,4S)-1-acetyl-2-(cyanomethyl)piperidin-4-yl)-8-chloro-6-fluoro-4-((S)-1-((S)-1-methylpyrrolidin-2-yl)ethoxy)-1H-pyrazolo[4,3-c]quinolin-7-yl)-1-naphthonitrile], for which the IC50 in data set [1] and in data set [3] was less than 100 nM each time. The Caco-2 result in data set [2] (Table 3) is “+++ (a Caco-2 value of >1)”.

As to `CN1CC(F)(COc2nc3c(F)c(-c4cc(O)cc5ccccc45)c(CCC#N)cc3c3c2cc(CCC(=O)N(C)C)n3[C@H]2[C@H]3CN[C@@H]2C3)C1` (single isomer, unassigned) [Example 13], the IC50 in data set [1] and in data set [3] was less than 100 nM throughout.

On to `Cc1nc2c(F)c(-c3cccc(Cl)c3Cl)c(CCC#N)cc2c2c1cc([C@H]1C[C@H]3C[C@H]3N1C(=O)C1CC1)n2[C@H]1[C@H]2CN[C@@H]1C2` [Example 49, 3-(1-((1R,4R,5S)-2-Azabicyclo[2.1.1]hexan-5-yl)-2-((1R,3R,5R)-2-(cyclopropanecarbonyl)-2-azabicyclo[3.1.0]hexan-3-yl)-7-(2,3-dichlorophenyl)-6-fluoro-4-methyl-1H-pyrrolo[3,2-c]quinolin-8-yl)propanenitrile], for which the IC50 in data set [1] and in data set [3] was less than 100 nM each time. In data set [2] (Table 4), the Caco-2 result is recorded as “+++ (a Caco-2 value of >1)”.

For `Cc1nc2c(F)c(-c3cccc(Cl)c3Cl)c(CCC#N)cc2c2c1cc([C@@H](C)N(C)C(=O)C1CC1)n2[C@H]1[C@H]2CN[C@@H]1C2` [Example 60, N-((1R)-1-(1-((1R,4R,5S)-2-Azabicyclo[2.1.1]hexan-5-yl)-8-(2-cyanoethyl)-7-(2,3-dichlorophenyl)-6-fluoro-4-methyl-1H-pyrrolo[3,2-c]quinolin-2-yl)ethyl)-N-methylcyclopropanecarboxamide], the IC50 in data set [1] was 100 to 1000 nM; in data set [3], less than 100 nM. For the same compound, the Caco-2 entry in data set [2] (Table 4) is reported as “+++ (a Caco-2 value of >1)”.

Consider `CNC(=O)c1ccc(-c2nc3c(F)c(-c4cccc(Cl)c4C)c(CCC#N)cc3c3c2cc([C@@H](C)n2ccncc2=O)n3[C@H]2[C@H]3CN[C@@H]2C3)cn1` (single isomer, unassigned) [Example 36], for which the IC50 in data set [1] and in data set [3] was less than 100 nM throughout. Moreover, in data set [2] (Table 4), the Caco-2 entry is on record as “+++ (a Caco-2 value of >1)”.

Turning to `CN(C)C(=O)c1ccc(-c2nc3c(F)c(-c4cccc(Cl)c4Cl)c(CCC#N)cc3c3c2cc([C@H]2CCCN2C(=O)C2(F)CC2)n3[C@H]2[C@H]3CN[C@@H]2C3)cn1` [Example 72, 5-(1-((1R,4R,5S)-2-Azabicyclo[2.1.1]hexan-5-yl)-8-(2-cyanoethyl)-7-(2,3-dichlorophenyl)-6-fluoro-2-((R)-1-(1-fluorocyclopropane-1-carbonyl)pyrrolidin-2-yl)-1H-pyrrolo[3,2-c]quinolin-4-yl)-N,N-dimethylpicolinamide], the IC50 in data set [1] and in data set [3] was less than 100 nM throughout. For the same compound, the Caco-2 entry in data set [2] (Table 4) is reported as “+++ (a Caco-2 value of >1)”.

For `CC(O)c1nc2c(F)c(-c3cccc(Cl)c3Cl)c(CCC#N)cc2c2c1cc([C@@H](C)NC(=O)C1(F)CC1)n2[C@H]1[C@H]2CN[C@@H]1C2` (stereo partly drawn) [Example 65, N-((1R)-1-(1-((1R,4R,5S)-2-Azabicyclo[2.1.1]hexan-5-yl)-8-(2-cyanoethyl)-7-(2,3-dichlorophenyl)-6-fluoro-4-(1-hydroxyethyl)-1H-pyrrolo[3,2-c]quinolin-2-yl)ethyl)-1-fluorocyclopropane-1-carboxamide], the IC50 in data set [1] and in data set [3] was less than 100 nM each time. In addition, the Caco-2 entry in data set [2] (Table 4) is given as “+++ (a Caco-2 value of >1)”.

`C[C@H](c1cc2c(-c3ccc(C(C)(C)O)nc3)nc3c(F)c(-c4cccc(Cl)c4Cl)c(CCC#N)cc3c2n1[C@H]1[C@H]2CN[C@@H]1C2)n1ccncc1=O` [Example 50, 3-(1-((1R,4R,5S)-2-Azabicyclo[2.1.1]hexan-5-yl)-7-(2,3-dichlorophenyl)-6-fluoro-4-(6-(2-hydroxypropan-2-yl)pyridin-3-yl)-2-((R)-1-(2-oxopyrazin-1(2H)-yl)ethyl)-1H-pyrrolo[3,2-c]quinolin-8-yl)propanenitrile]: the IC50 in data set [1] and in data set [3] was less than 100 nM throughout. For the same compound, the Caco-2 result in data set [2] (Table 4) is listed as “+++ (a Caco-2 value of >1)”.

In the case of `C[C@@H](CN(C)C)Oc1nc2c(F)c(-c3cccc4ccc(F)cc34)c(CCC#N)cc2c2c1cc(CN1CCCC1=O)n2[C@H]1[C@H]2CN[C@@H]1C2` (single isomer, unassigned) [Example 10], the IC50 in data set [1] and in data set [3] was less than 100 nM in each case. Moreover, in data set [2] (Table 3), the Caco-2 entry is reported as “+ (a Caco-2 value of 50.5)”.

`CC(=O)N1CC[C@H](n2ccc3c(O[C@@H](C)[C@@H]4CCCN4C)nc4c(F)c(-c5cccc6cccc(C#N)c56)c(Cl)cc4c32)C[C@H]1CC#N` (single isomer, unassigned) [Example 24a]: the IC50 in data set [1] and in data set [3] was less than 100 nM in each case.

In the case of `CC(=O)N1CC[C@H](n2ncc3c(O[C@@H](C)[C@@H]4CCCN4C)nc4c(F)c(-c5nccc6cccc(C#N)c56)c(Cl)cc4c32)C[C@H]1CC#N` (single isomer, unassigned) [Example 23a], the IC50 in data set [1] and in data set [3] was less than 100 nM in each case.

For the compound `CC(=O)N1CC[C@H](n2ccc3c(O[C@@H](C)[C@@H]4CCCN4C)nc4c(F)c(-c5cccc6cccc(C#N)c56)c(Cl)cc4c32)C[C@H]1CC#N` [Example 24, 8-(1-((2S,4S)-1-acetyl-2-(cyanomethyl)piperidin-4-yl)-8-chloro-6-fluoro-4-((S)-1-((S)-1-methylpyrrolidin-2-yl)ethoxy)-1H-pyrrolo[3,2-c]quinolin-7-yl)-1-naphthonitrile], the Caco-2 entry in data set [2] (Table 3) was “+ (a Caco-2 value of 50.5)”.

For the compound `Cc1cnc(-c2nc3c(F)c(-c4cccc(Cl)c4C)c(CCC#N)cc3c3c2cc([C@@H](C)N2CCOCC2=O)n3[C@H]2[C@H]3CN[C@@H]2C3)cn1` [Example 44, 3-(1-((1R,4R,5S)-2-Azabicyclo[2.1.1]hexan-5-yl)-7-(3-chloro-2-methylphenyl)-6-fluoro-4-(5-methylpyrazin-2-yl)-2-((R)-1-(3-oxomorpholino)ethyl)-1H-pyrrolo[3,2-c]quinolin-8-yl)propanenitrile], in data set [2] (Table 4), the Caco-2 entry is “+++ (a Caco-2 value of >1)”.

In the case of `CC(=O)N1CC[C@H](n2ncc3c(O[C@@H](C)[C@@H]4CCCN4C)nc4c(F)c(-c5nccc6cccc(C#N)c56)c(Cl)cc4c32)C[C@H]1CC#N` [Example 23, 1-(1-((2S,4S)-1-Acetyl-2-(cyanomethyl)piperidin-4-yl)-8-chloro-6-fluoro-4-((S)-1-((S)-1-methylpyrrolidin-2-yl)ethoxy)-1H-pyrazolo[4,3-c]quinolin-7-yl)isoquinoline-8-carbonitrile], the Caco-2 result in data set [2] (Table 3) is listed as “++ (a Caco-2 value of >0.5 but ≤1)”.
